Measured values published in ChEMBL document CHEMBL3885861, “Open TG-GATES”.

Organism: Rattus norvegicus
Experiment: Open TG-GATES - Regimen: Single
Assay type: toxicity, organism-based, Sprague-Dawley
Parameters: regimen Single, gender Male, age 6 weeks
Details: in vivo, po, route gavage; for APTT / Bas / Eos / Fbg / Hb / Ht / Lym / MCHC / MCV / Mono / Neu / PT / Plat / RBC / Ret / WBC: tissue Blood; for KIDNEY_L / KIDNEY_R / KIDNEY_TOTAL: tissue Kidney; for LIVER: tissue Liver; for ALP / ALT / AST / BUN / CRE / Ca / Cl / DBIL / GLC / IP / K / LDH / Na / PL / RALB / TBIL / TC / TG / TP / gamma-GTP: tissue Plasma
[1] = 0 mg/kg, 3 h, dose level Control
[2] = 0 mg/kg, 6 h, dose level Control
[3] = 0 mg/kg, 9 h, dose level Control
[4] = 0 mg/kg, 24 h, dose level Control

## CN(C)C(=N)N=C(N)N [METFORMIN]
[1]
  TERMINAL_BW: 200.9 g
  APTT: 16.9 s
  Bas: 0%
  Eos: 0.6%
  Fbg: 245.6 mg/dL
  Hb: 13.1 g/dL
  Ht: 39.6%
  Lym: 76.8%
  MCHC: 33%
  MCV: 65.3 fL
  Mono: 3.4%
  Neu: 18.4%
  PT: 12.3 s
  Plat: 111.6 x10_4/uL
  RBC: 606.6 x10_4/ul
  Ret: 10.1%
  WBC: 96.1 x10_2/uL
  KIDNEY_L: 0.9 g
  KIDNEY_R: 0.9 g
  KIDNEY_TOTAL: 1.8 g
  LIVER: 8.5 g
  ALP: 1612 IU/L
  ALT: 43.6 IU/L
  AST: 74.2 IU/L
  BUN: 9.2 mg/dL
  CRE: 0.2 mg/dL
  Ca: 11.1 mg/dL
  Cl: 104 meq/L
  DBIL: 0.016 mg/dL
  GLC: 179.8 mg/dL
  IP: 9.2 mg/dL
  K: 4.2 meq/L
  LDH: 58.2 IU/L
  Na: 140 meq/L
  PL: 136.6 mg/dL
  RALB: 2.5 g/dL
  TBIL: 0.052 mg/dL
  TC: 87 mg/dL
  TG: 42.2 mg/dL
  TP: 5.2 g/dL
  gamma-GTP: 1.4 IU/L
[2]
  TERMINAL_BW: 202.6 g
  APTT: 16.1 s
  Bas: 0%
  Eos: 0.8%
  Fbg: 261 mg/dL
  Hb: 12.9 g/dL
  Ht: 38.9%
  Lym: 77.2%
  MCV: 62.9 fL
  Mono: 3%
  Neu: 18.4%
  PT: 12.2 s
  Plat: 113.4 x10_4/uL
  RBC: 618.4 x10_4/ul
  Ret: 9.2%
  WBC: 92.1 x10_2/uL
  KIDNEY_L: 0.9 g
  KIDNEY_R: 0.9 g
  KIDNEY_TOTAL: 1.8 g
  LIVER: 8 g
  ALP: 1285 IU/L
  ALT: 44.8 IU/L
  AST: 78.8 IU/L
  BUN: 7.6 mg/dL
  CRE: 0.1 mg/dL
  Ca: 10.7 mg/dL
  Cl: 104.8 meq/L
  DBIL: 0.006 mg/dL
  GLC: 161 mg/dL
  IP: 9.9 mg/dL
  K: 4.1 meq/L
  LDH: 64 IU/L
  Na: 139.4 meq/L
  PL: 121 mg/dL
  RALB: 2.4 g/dL
  TBIL: 0.046 mg/dL
  TG: 27.2 mg/dL
  TP: 5 g/dL
  gamma-GTP: 1 IU/L
[3]
  TERMINAL_BW: 201 g
  APTT: 16 s
  Bas: 0%
  Eos: 1%
  Fbg: 244.8 mg/dL
  Hb: 12.4 g/dL
  Lym: 73.8%
  MCV: 64.5 fL
  Mono: 3.2%
  Neu: 21.4%
  PT: 12.2 s
  Plat: 107.6 x10_4/uL
  RBC: 577.8 x10_4/ul
  Ret: 10%
  WBC: 75.6 x10_2/uL
  KIDNEY_L: 0.9 g
  KIDNEY_R: 0.9 g
  KIDNEY_TOTAL: 1.7 g
  LIVER: 7.7 g
  ALP: 1175 IU/L
  ALT: 41.6 IU/L
  AST: 69.6 IU/L
  BUN: 9 mg/dL
  CRE: 0.1 mg/dL
  Ca: 10.6 mg/dL
  Cl: 105 meq/L
  DBIL: 0.008 mg/dL
  GLC: 164.8 mg/dL
  IP: 10.5 mg/dL
  K: 4 meq/L
  LDH: 49 IU/L
  Na: 141 meq/L
  PL: 136.4 mg/dL
  RALB: 2.5 g/dL
  TBIL: 0.042 mg/dL
  TC: 87 mg/dL
  TG: 35.6 mg/dL
  TP: 5.1 g/dL
  gamma-GTP: 1 IU/L
[4]
  TERMINAL_BW: 207.9 g
  APTT: 16.4 s
  Bas: 0%
  Eos: 1%
  Fbg: 230.4 mg/dL
  Hb: 13 g/dL
  Ht: 38.7%
  Lym: 77%
  MCHC: 33.5%
  Mono: 3.8%
  Neu: 17.8%
  PT: 12.5 s
  Plat: 115 x10_4/uL
  RBC: 595.2 x10_4/ul
  Ret: 8.9%
  WBC: 101.4 x10_2/uL
  KIDNEY_L: 0.9 g
  KIDNEY_R: 0.9 g
  KIDNEY_TOTAL: 1.8 g
  LIVER: 10 g
  ALP: 1728.6 IU/L
  ALT: 49.8 IU/L
  AST: 78.2 IU/L
  BUN: 16 mg/dL
  CRE: 0.2 mg/dL
  Ca: 11.4 mg/dL
  Cl: 103.8 meq/L
  DBIL: 0.012 mg/dL
  GLC: 173 mg/dL
  IP: 8.6 mg/dL
  K: 3.9 meq/L
  LDH: 63.6 IU/L
  Na: 141.2 meq/L
  PL: 139 mg/dL
  RALB: 2.6 g/dL
  TBIL: 0.038 mg/dL
  TG: 89.6 mg/dL
  TP: 5.5 g/dL
  gamma-GTP: 1 IU/L
100 mg/kg, 3 h, dose level Low
  TERMINAL_BW: 201 g
